We go through 2 molecules from patent EP0060099A1, “Antiviral agents, their preparation and use” (BEECHAM GROUP PLC, priority 1981, dated 1982).

Series [1] can be described thus: Toxicity to the cell monolayer in the plaque reduction test (MTD). The format is cell-based, African Green Monkey. Conditions: monkey, vero cells; minimum concentration which killed the cell monolayer; virus infected Vero cultures, 37°C for 6 days. How it is done: (§1) Vero (African Green Monkey Kidney) cells were grown to confluence in 6 well multidishes, each well being 3.5 cm in diameter'. The cells were incubated with Herpes simplex type 1 virus (HFEM strain) and overlaid with 0.5 mL of 0.9% agarose (w/v) in maintenance medium containing the test compound at a range of concentrations from […] in half-log dilution steps. The virus infected cultures were then incubated at 37°C for 6 days before fixing in 4% formaldehyde solution and staining with carbolfuchsin. The dishes were then examined to find that concentration of test compound causing a 50% reduction in the number of virus plaques formed (PDD50 value) and the minimum concentration of test compound which killed the cell monolayer, leaving a clear zone devoid of cells and virus plaques (MTD).
On the technique in general: Plaque reduction counts the foci of infection that form in a cell layer.

In series [2] the test system is Herpes simplex type 1 virus (HFEM strain). Description: Plaque reduction test in Vero cells infected with Herpes simplex type 1 virus. Conditions: Human alphaherpesvirus 1, 144 h, concentration causing a 50% reduction in the number of virus plaques formed, agarose overlay, 37°C for 6 days, read-out: PDD50 (the source's name). It counts as cell-based. Here is the method:
as §1

Structures are written as SMILES. ≈ marks a conversion by molar mass, not a printed value. Where only a bound is given, the exact number is not on record here.

`O=c1nc2n(cc1/C=C/Br)[C@H]1C[C@H](O)[C@@H](CO2)O1` [1 (b), 2,5'-Anhydro-E-5-(2-bromovinyl)-2'-deoxyuridine] gave an MCC at 144 h in series [1] of over 50 µg/mL. For the same molecule, the IC50 in series [2] came to 2.8 µg/mL (≈ 8.89 µM).

On to `CC(=O)OC1CC2OC1COc1nc(=O)c(C=CBr)cn12` (stereo not shown) [2 (b), 3'-0-Acetyl-2,5'-anhydro-E-5-(2-bromovinyl)-2'-deoxyuridine], for which the MCC at 144 h in series [1] was over 100 µg/mL. For the same molecule, in series [2], the IC50 is 13.5 µg/mL (≈ 37.8 µM).
